# Values quoted from earlier work as cited in patent publication US6803034B2, “Compositions and methods for odor and fungal control in ballistic fabric and other protective garments” (Procter & Gamble Company, priority 2000, dated 2004).
row,solubility in water,Compound
1,about 1.8%,"[H]/N=C(\N/C(=N/[H])NCCCCCCNC(=N)NC(=N)Nc1ccc(Cl)cc1)Nc1ccc(Cl)cc1 [chlorhexidine diacetate, 1,1′-hexamethylene bis(5-(p-chlorophenyl)biguanide)]"
2,about 70%,"[H]/N=C(\N/C(=N/[H])NCCCCCCNC(=N)NC(=N)Nc1ccc(Cl)cc1)Nc1ccc(Cl)cc1 [chlorhexidine digluconate, 1,1′-hexamethylene bis(5-(p-chlorophenyl)biguanide)]"
